The record followed here is US10375956B2, “Herbicidally active 2-(substituted-phenyl)-cyclopentane-1,3-dione compounds and derivatives thereof” (Syngenta Limited, priority 2013, dated 2019).

Type in all cases: in vivo
The test system of assay [1] is Setaria faberi (SETFA). Kind of assay: Test 1 glasshouse assay, pre-emergence herbicidal activity. To be noted: 312 h, visual evaluation after 13 days, read-out: Percentage phytotoxicity SETFA. Put shortly:
(§1)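 Seeds sown in standard soil were sprayed one day after sowing with active ingredient in acetone/water (50:50) plus 0.5% Tween 20. Plants grew in a glasshouse at 24/16° C day/night, 14 h light, 65% humidity, watered twice daily; phytotoxicity was scored visually after 13 days (0–100%).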

The test system of assay [2] is Zea mays (ZEAMX, corn/maize). The assay is described as above. To be noted: 312 h, visual evaluation after 13 days, read-out: Percentage phytotoxicity ZEAMX. In outline: as §1
Assay [3] relates to Abutilon theophrasti (ABUTH). Kind of assay: Test 1 glasshouse assay, post-emergence herbicidal activity. Particulars: 312 h, post-emergence (Example 1B Table 1), after 13 days, read-out: Percentage phytotoxicity ABUTH. Put shortly: (§2)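 Plants sprayed post-emergence after 8 days' growth with active ingredient in acetone/water (50:50) plus 0.5% Tween 20; glasshouse at 24/16° C day/night, 14 h light, 65% humidity. Visual percentage phytotoxicity scored 13 days later (100% = total damage, 0% = none).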

Assay [4] relates to Amaranthus retroflexus (AMARE). The assay is described as above. Particulars: 312 h, post-emergence (Example 1B Table 1), after 13 days, read-out: Percentage phytotoxicity AMARE. Put shortly: as §2
Assay [5] deals with Setaria faberi (SETFA). The assay is described as above. To be noted: 312 h, post-emergence (Example 1B Table 1), after 13 days, read-out: Percentage phytotoxicity SETFA. Put shortly:
as §2

The subject of assay [6] is Zea mays (ZEAMX, corn/maize). Described as above. To be noted: 312 h, post-emergence (Example 1B Table 1), after 13 days, read-out: Percentage phytotoxicity ZEAMX. In outline: as §2
Assay [7] relates to Digitaria sanguinalis (DIGSA). Kind of assay: Biological Example 3 glasshouse assay, post-emergence, various adjuvant systems. To be noted: 8 g/ha, 14 or 15 DAA, adjuvant 0.5% v/v TEHP + 1.0% v/v AMS + 12.5% v/v IPA. The procedure: (§3) Post-emergence foliar spray application, 200 L/ha, usually one or two replicates for the weeds (depending on application rate), and two replicates for soybean.
(§4) Standard warm conditions (tropical), in glasshouse. Specifically, the glasshouse bay conditions are 24° C./18° C. day/night; 16/8 hours light/dark; 65% humidity.
(§5) The herbicidal application takes place at the following growth stages for plants which include inter alia one or more of the following plants (usually the herbicidal application takes place on at least the following plants: DIGSA, ELEIN, SETFA, ZEAMX, GLXMA Nikko, and GLXMA TMG133, and often also either BRADC or BRAPP):
Digitaria sanguinalis (DIGSA)—growth stage 12 or 13
(§6) Each test compound is applied with one of the following adjuvant systems (all percentages are final concentrations in the aqueous spray mixture):
(§7) Adjuvant system 2: 0.5% v/v Hexamoll™ DINCH**, 1.0% v/v AMS (ammonium sulphate) and 12.5% v/v IPA (isopropyl alcohol).
(§8) Adjuvant system 3: 0.5% v/v tris-(2-ethylhexyl)phosphate (“TEHP”), 1.0% v/v AMS (ammonium sulphate) and 12.5% v/v IPA (isopropyl alcohol).
(§9) Seeds of the weed (including volunteer) plants, typically including inter alia Digitaria sanguinalis (DIGSA), Eleusine indica (ELEIN), Setaria faberi (SETFA), Zea mays (ZEAMX, corn), and sometimes also [either Brachiaria decumbens (BRADC) or Brachiaria platyphylla (BRAPP)], are sown in seed trays (troughs) containing clay loam soil (pH 7.0, 2.2% organic matter, “Trough Mix A”); and soybean seed is sown in pots containing the same soil with 3 soybean seedlings per pot. The plants are sprayed with the test herbicide when they reach the growth stages mentioned above.
(§10) The test herbicidal solutions are prepared by mixing the appropriate aliquots of the test substance(s) and one of the adjuvant systems indicated above *** in deionised water to give the desired treatment concentration.
(§11) The herbicidal application is made as a foliar spray, using a tracksprayer. Following the herbicidal application, the plants are watered twice per day for the duration of the test.
(§12) A visual assessment of the % herbicidal damage is made 7 and 14 Days After herbicide Application (DAA) (or, in a minority of cases, 7 and 15 DAA), and the results are recorded as % visual herbicidal damage where 0%=no damage to plants and 100%=plant totally killed.
(§13) Compounds A2 and A7 were tested using the 0.5% v/v Hexamoll™ DINCH™+1.0% v/v AMS+12.5% v/v IPA adjuvant system. Compounds A11, A12, A14, A20 and A21 were tested using the 0.5% v/v tris-(2-ethylhexyl)phosphate (“TEHP”)+1.0% v/v AMS+12.5% v/v IPA adjuvant system.
(§14) The percentages of herbicidal damage/plant control, at 14 Days After herbicide Application (DAA) (or, in some cases, at 15 DAA), for the Compounds tested and for some of the plants tested, were in the following percentage ranges. For the tested compounds, the phytotoxicity results shown herein are generally the average of 2 or 3 repetitions (for the grassy weeds including corn) or the average of 2 repetitions (for soybean for most of the tested compounds). However, for Compound A2 on soybean there was 1 repetion only.

Assay [8] relates to Zea mays (ZEAMX, maize/corn) cultivar Garland. Described as above. Particulars: 8 g/ha, 14 or 15 DAA, adjuvant 0.5% v/v TEHP + 1.0% v/v AMS + 12.5% v/v IPA. The procedure:
as §3, §4, §5
Zea mays (ZEAMX, maize/corn, e.g. can occur as volunteer corn) cultivar “Garland”—growth stage 12 or 13
as §6, §7, §8, §9, §10, §11, §12, §13, §14
Zea mays (ZEAMX, maize, corn) is often present as a “volunteer” weed (“volunteer” corn) in fields where it was planted as a crop in preceding growing season(s) and where the present field crop is not corn.

For assay [9], the system named is Glycine max (GLXMA, soybean) cultivar Nikko. Described as above. To be noted: 120 g/ha, 14 or 15 DAA, adjuvant 0.5% v/v TEHP + 1.0% v/v AMS + 12.5% v/v IPA, crop. Here is the method: as §3, §4, §5
Glycine max (GLXMA, soybean) cultivar “Nikko”—growth stage: 1st trifoliate
as §6, §7, §8, §9, §10, §11, §12, §13, §14

For `C#CCC1CC(=O)C(c2c(F)cc(-c3ccc(F)cc3F)cc2OC)C1=O` (stereo not shown) [Compound A21], the pest or weed control at 250 g/ha in the assay with Setaria faberi (SETFA) [1] is 90%; in assay [2], 100%; in assay [3] (250 g/ha) it was 40%; in assay [4] (250 g/ha), 30%; in the assay with Setaria faberi (SETFA) [5] (250 g/ha), 100%; in assay [6] (250 g/ha), 100%. The pest or weed control at 30 g/ha in assay [3] (30 g/ha) was found to be 0%; in [4] (30 g/ha), 10%; in the assay on Setaria faberi (SETFA) [5] (30 g/ha), 80%; in assay [6] (30 g/ha), 100%. Moreover, the “percentage control of Digitaria sanguinalis” value in assay [7] is listed as 45%. Also, the “percentage control of Zea mays” value in assay [8] came out at 95%. Besides, the “percentage phytotoxicity on Glycine max cultivar Nikko” value in assay [9] was determined as 5%.
